Reference: the supplement of paper PMC11061612

Tests used:
Palbociclib = compound: CC(=O)c1c(C)c2cnc(Nc3ccc(N4CCNCC4)cn3)nc2n(C2CCCC2)c1=O [Palbociclib]; details: max 10 µM
How it was run: (§1)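 Following 24 hours at 37°C and 5% CO2, cancer cell lines in 1536-well plates with 7.5 μl DMEM/F12 or RPMI and 10% FBS were dosed for 72 hours, final DMSO typically being 0.2%. CellTiter-Glo 2.0 luminescence, scaled between blank-well and DMSO-well means, gave the viability readout. Dose responses were fitted to a two-parameter logistic curve with a non-linear mixed effects model, and the single-agent IC50 was derived from this fit.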

Crizotinib = compound: C[C@@H](Oc1cc(-c2cnn(C3CCNCC3)c2)cnc1N)c1c(Cl)ccc(F)c1Cl [Crizotinib]; details: max 10 µM
How it was run: as §1

AZD8186 = compound: C[C@@H](Nc1cc(F)cc(F)c1)c1cc(C(=O)N(C)C)cc2c(=O)cc(N3CCOCC3)oc12 [AZD8186]; details: max 3 µM
How it was run: as §1

Trametinib = compound: CC(=O)Nc1cccc(-n2c(=O)n(C3CC3)c(=O)c3c(Nc4ccc(I)cc4F)n(C)c(=O)c(C)c32)c1 [Trametinib]; details: max 1 µM
How it was run: as §1

Doxorubicin = compound: COc1cccc2c1C(=O)c1c(O)c3c(c(O)c1C2=O)C[C@@](O)(C(=O)CO)C[C@@H]3O[C@H]1C[C@H](N)[C@H](O)[C@H](C)O1 [Doxorubicin]; details: max 1 µM
How it was run: as §1

Alisertib = compound: COc1cc(Nc2ncc3c(n2)-c2ccc(Cl)cc2C(c2c(F)cccc2OC)=NC3)ccc1C(=O)O [Alisertib]; details: max 10 µM
How it was run: as §1

AZD0156 = compound: CN(C)CCCOc1ccc(-c2ccc3ncc4c(c3c2)n(C2CCOCC2)c(=O)n4C)cn1 [AZD0156]
How it was run: as §1

AZD5991 = compound: Cc1c2c(nn1C)CSCc1cc(n(C)n1)CSc1cc(c3ccccc3c1)OCCCc1c(C(=O)O)n(C)c3c-2c(Cl)ccc13 [AZD5991]; details: max 1 µM
How it was run: as §1

Taselisib = compound: Cc1nc(-c2cn3c(n2)-c2ccc(-c4cnn(C(C)(C)C(N)=O)c4)cc2OCC3)n(C(C)C)n1 [Taselisib]; details: max 10 µM
How it was run: as §1

AZD4320 = compound: CN(CC[C@H](CSC1=CC=CC=C1)NC2=C(C=C(C=C2)S(=O)(=O)NC(=O)C3=CC=C(C=C3)N4CCC(CC4)[C@H](C5=CC=CC=C5C6=CC=C(C=C6)Cl)O)S(=O)(=O)C(F)(F)F)CCO [AZD4320]; details: max 1 µM
How it was run: as §1

Olaparib = compound: O=C(c1cc(Cc2n[nH]c(=O)c3ccccc23)ccc1F)N1CCN(C(=O)C2CC2)CC1 [Olaparib]; details: max 10 µM
How it was run: as §1

Dasatinib = compound: CC1=C(C(=CC=C1)Cl)NC(=O)C2=CN=C(S2)NC3=CC(=NC(=N3)C)N4CCN(CC4)CCO [Dasatinib]; details: max 2 µM
How it was run: as §1

SG3199 = compound: CC1=CN2[C@@H](C1)C=NC3=CC(=C(C=C3C2=O)OC)OCCCCCOC4=C(C=C5C(=C4)N=C[C@@H]6CC(=CN6C5=O)C)OC [SG3199]; details: max 0.001 µM
How it was run: as §1

Capivasertib = compound: C1CN(CCC1(C(=O)N[C@@H](CCO)C2=CC=C(C=C2)Cl)N)C3=NC=NC4=C3C=CN4 [Capivasertib]; details: max 10 µM
How it was run: as §1

AZD6738 = compound: C[C@@H]1COCCN1C2=NC(=NC(=C2)C3(CC3)[S@](=N)(=O)C)C4=C5C=CNC5=NC=C4 [AZD6738]; details: max 10 µM
How it was run: as §1

Gefitinib = compound: COc1cc2ncnc(Nc3ccc(F)c(Cl)c3)c2cc1OCCCN1CCOCC1 [Gefitinib]; details: max 10 µM
How it was run: as §1

AZD2811 = compound: CCN(CCO)CCCOc1ccc2c(Nc3cc(CC(=O)Nc4cccc(F)c4)[nH]n3)ncnc2c1 [AZD2811]; details: max 1 µM
How it was run: as §1

Selumetinib = compound: Cn1cnc2c(F)c(Nc3ccc(Br)cc3Cl)c(C(=O)NOCCO)cc21 [Selumetinib]; details: max 10 µM
How it was run: as §1

Savolitinib = compound: C[C@@H](c1ccc2nccn2c1)n1nnc2ncc(-c3cnn(C)c3)nc21 [Savolitinib]; details: max 1 µM
How it was run: as §1

AZD1390 = compound: CC(C)n1c(=O)n(C)c2cnc3cc(F)c(-c4ccc(OCCCN5CCCCC5)nc4)cc3c21 [AZD1390]; details: max 0.3 µM
How it was run: as §1

Prexasertib = compound: COc1cccc(OCCCN)c1-c1cc(Nc2cnc(C#N)cn2)n[nH]1 [Prexasertib]; details: max 1 µM
How it was run: as §1

AZD5153 = compound: COc1nnc2ccc(N3CCC(c4ccc(OCCN5CCN(C)C(=O)[C@H]5C)cc4)CC3)nn12 [AZD5153]; details: max 1 µM
How it was run: as §1

AZD7648 = compound: Cc1cc2ncnn2cc1Nc1ncc2c(n1)n(C1CCOCC1)c(=O)n2C [AZD7648]; details: max 10 µM
How it was run: as §1

Venetoclax = compound: CC1(C)CCC(CN2CCN(c3ccc(C(=O)NS(=O)(=O)c4ccc(NCC5CCOCC5)c([N+](=O)[O-])c4)c(Oc4cnc5[nH]ccc5c4)c3)CC2)=C(c2ccc(Cl)cc2)C1 [Venetoclax]; details: max 1 µM
How it was run: as §1

SN-38 = compound: CCc1c2c(nc3ccc(O)cc13)-c1cc3c(c(=O)n1C2)COC(=O)[C@]3(O)CC [SN-38]; details: max 0.3 µM
How it was run: as §1

Lapatinib = compound: CS(=O)(=O)CCNCc1ccc(-c2ccc3ncnc(Nc4ccc(OCc5cccc(F)c5)c(Cl)c4)c3c2)o1 [Lapatinib]; details: max 10 µM
How it was run: as §1

AZD1775 = compound: C=CCn1c(=O)c2cnc(Nc3ccc(N4CCN(C)CC4)cc3)nc2n1-c1cccc(C(C)(C)O)n1 [AZD1775]
How it was run: as §1

Cell Line | IC50, cell viability 72 h (Palbociclib) | IC50, cell viability 72 h (Crizotinib) | IC50, cell viability 72 h (AZD8186) | IC50, cell viability 72 h (Trametinib) | IC50, cell viability 72 h (Doxorubicin) | IC50, cell viability 72 h (Alisertib) | IC50, cell viability 72 h (AZD0156; max 3 µM) | IC50, cell viability 72 h (AZD5991) | IC50, cell viability 72 h (Taselisib) | IC50, cell viability 72 h (AZD4320) | IC50, cell viability 72 h (Olaparib) | IC50, cell viability 72 h (Dasatinib) | IC50, cell viability 72 h (SG3199) | IC50, cell viability 72 h (Capivasertib) | IC50, cell viability 72 h (AZD6738) | IC50, cell viability 72 h (Gefitinib) | IC50, cell viability 72 h (AZD2811) | IC50, cell viability 72 h (Selumetinib) | IC50, cell viability 72 h (Savolitinib) | IC50, cell viability 72 h (AZD1390) | IC50, cell viability 72 h (Prexasertib) | IC50, cell viability 72 h (AZD5153) | IC50, cell viability 72 h (AZD7648) | IC50, cell viability 72 h (Venetoclax) | IC50, cell viability 72 h (SN-38) | IC50, cell viability 72 h (Lapatinib) | IC50, cell viability 72 h (AZD1775; max 3 µM) | IC50, cell viability 72 h (AZD0156; max 1 µM) | IC50, cell viability 72 h (AZD1775; max 1 µM)
EBC-1 (Squamous Cell Lung Carcinoma) | > 10000 nM | 59 nM | > 3000 nM | 23.9 nM | > 1000 nM | > 10000 nM | > 3000 nM | > 1000 nM | 5250 nM | 585 nM | > 10000 nM | > 2000 nM | > 1 nM | > 10000 nM | > 10000 nM | > 10000 nM | > 1000 nM | 1100 nM | 4.07 nM | > 300 nM | 596 nM | 80.5 nM | > 10000 nM | > 1000 nM | 3.58 nM | > 10000 nM | 2940 nM | – | –
EMC-BAC-2 (Non-Small Cell Lung Carcinoma) | > 10000 nM | > 10000 nM | > 3000 nM | 198 nM | 959 nM | 5480 nM | > 3000 nM | 873 nM | 2320 nM | > 1000 nM | > 10000 nM | 995 nM | > 1 nM | > 10000 nM | > 10000 nM | > 10000 nM | > 1000 nM | > 10000 nM | > 1000 nM | > 300 nM | > 1000 nM | 220 nM | > 10000 nM | > 1000 nM | 169 nM | > 10000 nM | > 3000 nM | – | –
EW-13 (Ewing's Sarcoma) | > 10000 nM | > 10000 nM | > 3000 nM | > 1000 nM | 467 nM | > 10000 nM | – | > 1000 nM | > 10000 nM | 270 nM | > 10000 nM | > 2000 nM | > 1 nM | > 10000 nM | > 10000 nM | > 10000 nM | > 1000 nM | > 10000 nM | > 1000 nM | > 300 nM | 829 nM | > 1000 nM | > 10000 nM | > 1000 nM | 8.64 nM | > 10000 nM | – | > 1000 nM | > 1000 nM
EW-18 (Ewing's Sarcoma) | > 10000 nM | 1850 nM | > 3000 nM | > 1000 nM | > 1000 nM | 853 nM | > 3000 nM | 60 nM | 1240 nM | 45.4 nM | > 10000 nM | > 2000 nM | > 1 nM | 2440 nM | 3990 nM | > 10000 nM | 131 nM | > 10000 nM | > 1000 nM | > 300 nM | 43.2 nM | 376 nM | > 10000 nM | > 1000 nM | 106 nM | > 10000 nM | 359 nM | – | –
